From ChEMBL document CHEMBL3390836, “Mannich- and LedererManasse-based analogues of the natural product S-(+)-curcuphenol as cancer proliferation and migration inhibitors” (Medchemcomm, 2012)

Experiments:
Assay type in all cases: functional
[1] = Cytotoxicity against human HCT116 cells assessed as cell growth at 10^-4 M after 48 hrs by SRB assay relative to control; conditions: HCT-116, 48 h, read-out: Activity
[2] = Cytotoxicity against human HCT15 cells assessed as cell growth at 10^-4 M after 48 hrs by SRB assay relative to control; conditions: HCT-15, 48 h, read-out: Activity
HT-29 = test: Cytotoxicity against human HT-29 cells assessed as cell growth at 10^-4 M after 48 hrs by SRB assay relative to control; conditions: HT-29, 48 h, read-out: Activity
SNB-75 = test: Cytotoxicity against human SNB75 cells after 48 hrs by SRB assay; conditions: SNB-75, 48 h
SK-MEL-2 = test: Cytotoxicity against human SK-MEL-2 cells after 48 hrs by SRB assay; conditions: SK-MEL-2, 48 h
SK-MEL-5 [3] = test: Cytotoxicity against human SK-MEL-5 cells after 48 hrs by SRB assay; conditions: SK-MEL-5, 48 h
[4] = Cytotoxicity against human UACC62 cells after 48 hrs by SRB assay; conditions: UACC-62, 48 h
ACHN = test: Cytotoxicity against human ACHN cells after 48 hrs by SRB assay
RXF 393 = test: Cytotoxicity against human RXF393 cells after 48 hrs by SRB assay; conditions: RXF 393, 48 h
SF-539 [5] = test: Cytotoxicity against human SF539 cells assessed as cell growth at 10^-4 M after 48 hrs by SRB assay relative to control; conditions: SF-539, 48 h, read-out: Activity
HL-60(TB) [6] = test: Cytotoxicity against human HL-60(TB) cells assessed as cell growth at 10^-8 M after 48 hrs by SRB assay relative to control; conditions: HL-60, 48 h, read-out: Activity
HOP-62 = test: Cytotoxicity against human HOP62 cells assessed as cell growth at 10^-8 M after 48 hrs by SRB assay relative to control; conditions: HOP-62, 48 h, read-out: Activity
NCI-H226 = test: Cytotoxicity against human NCI-H226 cells assessed as cell growth at 10^-8 M after 48 hrs by SRB assay relative to control; conditions: NCI-H226, 48 h, read-out: Activity
[7] = Cytotoxicity against human HCT15 cells assessed as cell growth at 10^-8 M after 48 hrs by SRB assay relative to control; conditions: HCT-15, 48 h, read-out: Activity
SF-268 [8] = test: Cytotoxicity against human SF268 cells assessed as cell growth at 10^-8 M after 48 hrs by SRB assay relative to control; conditions: SF-268, 48 h, read-out: Activity
SNB-19 = test: Cytotoxicity against human SNB19 cells assessed as cell growth at 10^-8 M after 48 hrs by SRB assay relative to control; conditions: SNB-19, 48 h, read-out: Activity
SK-MEL-5 [9] = test: Cytotoxicity against human SK-MEL-5 cells assessed as cell growth at 10^-4 M after 48 hrs by SRB assay relative to control; conditions: SK-MEL-5, 48 h, read-out: Activity
[10] = Cytotoxicity against human OVCAR5 cells assessed as cell growth at 10^-4 M after 48 hrs by SRB assay relative to control; conditions: OVCAR-5, 48 h, read-out: Activity
A498 [11] = test: Cytotoxicity against human A498 cells assessed as cell growth at 10^-4 M after 48 hrs by SRB assay relative to control; conditions: A498, 48 h, read-out: Activity
[12] = Cytotoxicity against human OVCAR8 cells assessed as cell growth at 10^-8 M after 48 hrs by SRB assay relative to control; conditions: OVCAR-8, 48 h, read-out: Activity
[13] = Cytotoxicity against human NCI-ADR-RES cells assessed as cell growth at 10^-8 M after 48 hrs by SRB assay relative to control; conditions: read-out: Activity
A498 [14] = test: Cytotoxicity against human A498 cells assessed as cell growth at 10^-8 M after 48 hrs by SRB assay relative to control; conditions: A498, 48 h, read-out: Activity
CAKI-1 = test: Cytotoxicity against human Caki1 cells assessed as cell growth at 10^-8 M after 48 hrs by SRB assay relative to control; conditions: CAKI-1, 48 h, read-out: Activity
[15] = Cytotoxicity against human PC3 cells assessed as cell growth at 10^-8 M after 48 hrs by SRB assay relative to control; conditions: PC-3, 48 h, read-out: Activity
HL-60(TB) [16] = test: Cytotoxicity against human HL-60(TB) cells assessed as cell growth at 10^-7 M after 48 hrs by SRB assay relative to control; conditions: HL-60, 48 h, read-out: Activity
[17] = Cytotoxicity against human EKVX cells assessed as cell growth at 10^-7 M after 48 hrs by SRB assay relative to control; conditions: read-out: Activity
SF-268 [18] = test: Cytotoxicity against human SF268 cells assessed as cell growth at 10^-7 M after 48 hrs by SRB assay relative to control; conditions: SF-268, 48 h, read-out: Activity
SF-539 [19] = test: Cytotoxicity against human SF539 cells assessed as cell growth at 10^-7 M after 48 hrs by SRB assay relative to control; conditions: SF-539, 48 h, read-out: Activity
HCC 2998 = test: Cytotoxicity against human HCC2998 cells after 48 hrs by SRB assay; conditions: HCC 2998, 48 h
SW-620 = test: Cytotoxicity against human SW620 cells after 48 hrs by SRB assay; conditions: SW-620, 48 h
SK-MEL-5 [20] = test: Cytotoxicity against human SK-MEL-5 cells assessed as cell growth at 10^-7 M after 48 hrs by SRB assay relative to control; conditions: SK-MEL-5, 48 h, read-out: Activity
[21] = Cytotoxicity against human OVCAR8 cells assessed as cell growth at 10^-7 M after 48 hrs by SRB assay relative to control; conditions: OVCAR-8, 48 h, read-out: Activity
NCI-H23 = test: Cytotoxicity against human NCI-H23 cells assessed as cell growth at 10^-6 M after 48 hrs by SRB assay relative to control; conditions: NCI-H23, 48 h, read-out: Activity
COLO 205 = test: Cytotoxicity against human COLO205 cells assessed as cell growth at 10^-6 M after 48 hrs by SRB assay relative to control; conditions: COLO 205, 48 h, read-out: Activity
[22] = Cytotoxicity against human HCT15 cells assessed as cell growth at 10^-6 M after 48 hrs by SRB assay relative to control; conditions: HCT-15, 48 h, read-out: Activity
TK-10 = test: Cytotoxicity against human TK10 cells assessed as cell growth at 10^-6 M after 48 hrs by SRB assay relative to control; conditions: TK-10, 48 h, read-out: Activity
[23] = read-out: LC50 (the source's name)

Work on `COc1ccc(CCN2COc3c([C@@H](C)CCC=C(C)C)ccc(C)c3C2)cc1OC` yielded a growth at 100 µM [1] of -100%, a growth at 100 µM [2] of -87% and a growth at 100 µM (HT-29) of -89%. The GI50 (SNB-75) was 12.5 µM, the LC50 (SNB-75) was greater than 100 µM and the TGI (SNB-75) was 35.4 µM. For the same compound, the GI50 (SK-MEL-2) was 1.88 µM, the LC50 (SK-MEL-2) was 7.79 µM and the TGI (SK-MEL-2) was 3.82 µM. It also gave a GI50 (SK-MEL-5 [3]) of 1.64 µM, an LC50 (SK-MEL-5 [3]) of 5.66 µM and a TGI (SK-MEL-5 [3]) of 3.04 µM. It also gave a GI50 [4] of 3.48 µM, an LC50 (concentration killing 50% of cells) [4] of 38.7 µM and a TGI [4] of 14.6 µM. For the same compound, the GI50 (ACHN) was 6.11 µM, the LC50 (concentration killing 50% of cells) (ACHN) was 48.1 µM and the TGI (ACHN) was 20.2 µM. It also gave a GI50 (RXF 393) of 1.73 µM, an LC50 (concentration killing 50% of cells) (RXF 393) of 18.2 µM and a TGI (RXF 393) of 4.85 µM. The growth at 100 µM (SF-539 [5]) was -100%, the growth at 0.01 µM (HL-60(TB) [6]) was 98% and the growth at 0.01 µM (HOP-62) was 101%. The growth at 0.01 µM (NCI-H226) was 90%, the growth at 0.01 µM [7] was 85% and the growth at 0.01 µM (SF-268 [8]) was 85%. The growth at 0.01 µM (SNB-19) was 99%, the growth at 100 µM (SK-MEL-5 [9]) was -100% and the growth at 100 µM [10] was -100%. The growth at 100 µM (A498 [11]) was -93%, the growth at 0.01 µM [12] was 86% and the growth at 0.01 µM [13] was 98%. For the same compound, the growth at 0.01 µM (A498 [14]) was 67%, the growth at 0.01 µM (CAKI-1) was 94% and the growth at 0.01 µM [15] was 94%. It also gave a growth at 0.1 µM (HL-60(TB) [16]) of 99%, a growth at 0.1 µM [17] of 91% and a growth at 0.1 µM (SF-268 [18]) of 79%. For the same compound, the growth at 0.1 µM (SF-539 [19]) was 88%, the GI50 (HCC 2998) was 1.59 µM and the TGI (HCC 2998) was 2.96 µM. For the same compound, the CC50 (HCC 2998; [23]) was 5.49 µM, the GI50 (SW-620) was 1.91 µM and the TGI (SW-620) was 4.08 µM. It also gave a CC50 (SW-620; [23]) of 8.72 µM, a growth at 0.1 µM (SK-MEL-5 [20]) of 91% and a growth at 0.1 µM [21] of 95%. For the same compound, the growth at 1 µM (NCI-H23) was 104%, the growth at 1 µM (COLO 205) was 100% and the growth at 1 µM [22] was 90%. The growth at 1 µM (TK-10) was 89%.
